In the assay the target is T1, SpoIVB (sporulation factor IV B protease) (Bacillus subtilis, UniProt P17896, S378A).
T1 construct: truncated SpoIVB (residues Thr75-Ser426), N-terminal 6 × His and mMBP fusion tags
As to the kind of experiment: microscale thermophoresis (MST), RED-NHS labelled protein. It is filed as binding. (Microscale thermophoresis detects binding through changes in fluorescence in a small temperature gradient.)

Broadly, the Kd is the free concentration of one partner at which half of the binding sites on the other are occupied at equilibrium, for simple one-to-one binding. A low value points to tighter binding.

T1 sequence (P17896 75-426 S378A): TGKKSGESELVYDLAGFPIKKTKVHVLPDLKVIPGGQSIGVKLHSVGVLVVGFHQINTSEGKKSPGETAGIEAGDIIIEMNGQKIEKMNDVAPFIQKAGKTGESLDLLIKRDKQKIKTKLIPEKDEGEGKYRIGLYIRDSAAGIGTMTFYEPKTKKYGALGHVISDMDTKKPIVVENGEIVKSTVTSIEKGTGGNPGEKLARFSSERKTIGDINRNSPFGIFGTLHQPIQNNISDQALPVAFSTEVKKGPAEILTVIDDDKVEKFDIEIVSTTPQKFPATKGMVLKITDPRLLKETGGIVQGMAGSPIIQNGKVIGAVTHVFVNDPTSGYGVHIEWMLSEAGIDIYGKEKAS

On to `N=C(N)c1ccccc1` [benzamidine], for which the dissociation constant (Kd) is 660 ± 28 µM.
